{"source": "PubChem BioAssay AID330", "about": "(DTP/NCI, 2004)", "system": "P388 leukemia ip, CD2F1 mice, survival T/C", "assay": "NCI In Vivo Anticancer Drug Screen. Data for tumor model P388 Leukemia (intraperitoneal) in CD2F1 (CDF1) mice", "details": "endpoint: median survival time, higher = longer survival", "method_in_brief": "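Mice carrying the transplanted tumor received test compound or vehicle. Survival was recorded in each group, and the value is the treated-group measurement divided by that of the vehicle-treated control group.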", "key": {"[1]": {"details": "dose: 50.0 mg/kg/injection, schedule: Q01DX005 (ip), vehicle: saline with Tween-80"}, "[2]": {"details": "dose: 100.0 mg/kg/injection, schedule: Q01DX005 (ip), vehicle: saline with Tween-80"}, "[3]": {"details": "dose: 200.0 mg/kg/injection, schedule: Q01DX005 (ip), vehicle: saline with Tween-80"}, "[4]": {"details": "dose: 50.0 mg/kg/injection, schedule: Q01DX009 (ip), vehicle: Klucel (hydroxypropylcellulose) (HPC)"}, "[5]": {"details": "dose: 100.0 mg/kg/injection, schedule: Q01DX009 (ip), vehicle: Klucel (hydroxypropylcellulose) (HPC)"}, "[6]": {"details": "dose: 200.0 mg/kg/injection, schedule: Q01DX009 (ip), vehicle: Klucel (hydroxypropylcellulose) (HPC)"}, "[7]": {"details": "dose: 50.0 mg/kg/injection, schedule: Q01DX001 (ip), vehicle: Klucel (hydroxypropylcellulose) (HPC)"}, "[8]": {"details": "dose: 100.0 mg/kg/injection, schedule: Q01DX001 (ip), vehicle: Klucel (hydroxypropylcellulose) (HPC)"}, "[9]": {"details": "dose: 50.0 mg/kg/injection, schedule: Q01DX005 (ip), vehicle: Klucel (hydroxypropylcellulose) (HPC)"}, "[10]": {"details": "dose: 100.0 mg/kg/injection, schedule: Q01DX005 (ip), vehicle: Klucel (hydroxypropylcellulose) (HPC)"}, "[11]": {"details": "dose: 200.0 mg/kg/injection, schedule: Q01DX005 (ip), vehicle: Klucel (hydroxypropylcellulose) (HPC)"}, "[12]": {"details": "dose: 100.0 mg/kg/injection, schedule: Q04DX003 (ip), vehicle: saline with Tween-80"}, "[13]": {"details": "dose: 200.0 mg/kg/injection, schedule: Q04DX003 (ip), vehicle: saline with Tween-80"}, "[14]": {"details": "dose: 400.0 mg/kg/injection, schedule: Q04DX003 (ip), vehicle: saline with Tween-80"}}, "note": "Values joined by “and” are separate entries in the source; they are usually repeats but may differ in a detail not shown here. Equal values may be shown once. Toxic doses and inconclusive results are not listed.", "data": [{"smiles": "COc1cccc2c1C(=O)c1c(O)c3c(c(O)c1C2=O)CC(O)(C(C)=O)CC3OC1CC(OC(=O)c2ccc([N+](=O)[O-])cc2)C(OC(=O)c2ccc([N+](=O)[O-])cc2)C(C)O1", "note": "(stereo not drawn)", "values": [{"measurement": "T/C", "setting": "dose: 3.13 mg/kg/injection, schedule: Q04DX003 (ip), vehicle: distilled water + Tween-80", "result": "100 % of control"}, {"measurement": "T/C", "setting": "dose: 3.13 mg/kg/injection, schedule: Q04DX003 (ip), vehicle: saline with Tween-80", "result": "100 % of control and 101 % of control"}, {"measurement": "T/C", "setting": "dose: 6.25 mg/kg/injection, schedule: Q04DX003 (ip), vehicle: distilled water + Tween-80", "result": "108 % of control"}, {"measurement": "T/C", "setting": "dose: 6.25 mg/kg/injection, schedule: Q04DX003 (ip), vehicle: saline with Tween-80", "result": "104 % of control and 100 % of control"}, {"measurement": "T/C", "setting": "dose: 12.5 mg/kg/injection, schedule: Q04DX003 (ip), vehicle: distilled water + Tween-80", "result": "101 % of control"}, {"measurement": "T/C", "setting": "dose: 12.5 mg/kg/injection, schedule: Q04DX003 (ip), vehicle: saline with Tween-80", "result": "101 % of control and 95 % of control"}, {"measurement": "T/C", "setting": "dose: 25.0 mg/kg/injection, schedule: Q04DX003 (ip), vehicle: distilled water + Tween-80", "result": "95 % of control"}, {"measurement": "T/C", "setting": "dose: 25.0 mg/kg/injection, schedule: Q04DX003 (ip), vehicle: saline with Tween-80", "result": "101 % of control and 100 % of control"}, {"measurement": "T/C", "setting": "dose: 50.0 mg/kg/injection, schedule: Q04DX003 (ip), vehicle: distilled water + Tween-80", "result": "156 % of control"}, {"measurement": "T/C", "setting": "dose: 50.0 mg/kg/injection, schedule: Q04DX003 (ip), vehicle: saline with Tween-80", "result": "95 % of control and 100 % of control"}]}, {"smiles": "CN1Cc2ccccc2[C@H]2C(c3ccccc3)=NN(c3ccccc3)[C@H]21", "values": [{"measurement": "T/C", "setting": "[1]", "result": "103 % of control"}, {"measurement": "T/C", "setting": "[2]", "result": "94 % of control"}, {"measurement": "T/C", "setting": "[3]", "result": "92 % of control"}]}, {"smiles": "CCOC(=O)c1ccc(NC(C)=NC(C)(C)C)cc1", "values": [{"measurement": "T/C", "setting": "[4]", "result": "93 % of control"}, {"measurement": "T/C", "setting": "[5]", "result": "91 % of control"}, {"measurement": "T/C", "setting": "[6]", "result": "102 % of control"}]}, {"smiles": "Cc1nnsc1-c1n[nH]c(=S)n1N", "values": [{"measurement": "T/C", "setting": "dose: 25.0 mg/kg/injection, schedule: Q01DX001 (ip), vehicle: Klucel (hydroxypropylcellulose) (HPC)", "result": "106 % of control"}, {"measurement": "T/C", "setting": "[7]", "result": "107 % of control"}, {"measurement": "T/C", "setting": "[8]", "result": "101 % of control"}]}, {"smiles": "Cc1nn(C(=S)S)c(C)c1N=Nc1ccc(Cl)cc1Cl", "values": [{"measurement": "T/C", "setting": "[1]", "result": "100 % of control"}, {"measurement": "T/C", "setting": "[2]", "result": "96 % of control"}, {"measurement": "T/C", "setting": "[3]", "result": "102 % of control"}]}, {"smiles": "N#[O+].O.O=N[O-].O=N[O-].O=N[O-].O=N[O-].[Ru]", "values": [{"measurement": "T/C", "setting": "dose: 3.13 mg/kg/injection, schedule: Q04DX003 (ip), vehicle: water", "result": "113 % of control"}, {"measurement": "T/C", "setting": "dose: 6.25 mg/kg/injection, schedule: Q04DX003 (ip), vehicle: water", "result": "106 % of control and 118 % of control"}]}, {"smiles": "NC(=NCc1ccc2c(c1)OCO2)N[N+](=O)[O-]", "values": [{"measurement": "T/C", "setting": "[9]", "result": "104 % of control"}, {"measurement": "T/C", "setting": "[10]", "result": "100 % of control"}, {"measurement": "T/C", "setting": "[11]", "result": "96 % of control"}]}, {"smiles": "c1ccc([P+](CC[P+](c2ccccc2)(c2ccccc2)c2ccccc2)(c2ccccc2)c2ccccc2)cc1", "values": [{"measurement": "T/C", "setting": "dose: 0.78 mg/kg/injection, schedule: Q01DX009 (ip), vehicle: saline", "result": "105 % of control"}, {"measurement": "T/C", "setting": "dose: 1.56 mg/kg/injection, schedule: Q01DX009 (ip), vehicle: saline", "result": "103 % of control"}]}, {"smiles": "CCCCOC(=O)C(CC)c1ccccc1", "note": "(stereo not drawn)", "values": [{"measurement": "T/C", "setting": "[12]", "result": "114 % of control"}, {"measurement": "T/C", "setting": "[13]", "result": "114 % of control"}, {"measurement": "T/C", "setting": "[14]", "result": "112 % of control"}]}, {"smiles": "CCCCCCCS(=O)(=O)OCCCCOS(=O)(=O)CCCCCCC", "values": [{"measurement": "T/C", "setting": "dose: 45.0 mg/kg/injection, schedule: Q01DX005 (ip), vehicle: acetone", "result": "99 % of control"}, {"measurement": "T/C", "setting": "dose: 90.0 mg/kg/injection, schedule: Q01DX005 (ip), vehicle: acetone", "result": "100 % of control"}, {"measurement": "T/C", "setting": "dose: 180.0 mg/kg/injection, schedule: Q01DX005 (ip), vehicle: acetone", "result": "99 % of control"}]}, {"smiles": "CCCCCOC(CN(C)C)C(Cl)(Cl)Cl", "note": "(stereo not drawn)", "values": [{"measurement": "T/C", "setting": "[4]", "result": "100 % of control"}, {"measurement": "T/C", "setting": "[5]", "result": "100 % of control"}, {"measurement": "T/C", "setting": "[6]", "result": "101 % of control"}]}, {"smiles": "CCCC1(c2ccccc2)CCCC(C#N)C1=N", "note": "(stereo not drawn)", "values": [{"measurement": "T/C", "setting": "dose: 100.0 mg/kg/injection, schedule: Q04DX003 (ip), vehicle: Klucel (hydroxypropylcellulose) (HPC)", "result": "97 % of control"}, {"measurement": "T/C", "setting": "dose: 200.0 mg/kg/injection, schedule: Q04DX003 (ip), vehicle: Klucel (hydroxypropylcellulose) (HPC)", "result": "98 % of control"}, {"measurement": "T/C", "setting": "dose: 400.0 mg/kg/injection, schedule: Q04DX003 (ip), vehicle: Klucel (hydroxypropylcellulose) (HPC)", "result": "92 % of control"}]}, {"smiles": "Clc1ccccc1C(Nc1ncccn1)Nc1ncccn1", "values": [{"measurement": "T/C", "setting": "[9]", "result": "93 % of control"}, {"measurement": "T/C", "setting": "[10]", "result": "93 % of control"}, {"measurement": "T/C", "setting": "[11]", "result": "96 % of control"}]}, {"smiles": "Cn1nnnc1-c1cccc(F)c1", "values": [{"measurement": "T/C", "setting": "[7]", "result": "101 % of control"}, {"measurement": "T/C", "setting": "[8]", "result": "102 % of control"}, {"measurement": "T/C", "setting": "dose: 200.0 mg/kg/injection, schedule: Q01DX001 (ip), vehicle: Klucel (hydroxypropylcellulose) (HPC)", "result": "104 % of control"}]}, {"smiles": "CC(C)C1OC(c2ccc(Cl)cc2)OCC1(C)C", "note": "(stereo not drawn)", "values": [{"measurement": "T/C", "setting": "[12]", "result": "114 % of control"}, {"measurement": "T/C", "setting": "[13]", "result": "110 % of control"}, {"measurement": "T/C", "setting": "[14]", "result": "97 % of control"}]}, {"smiles": "O=C1/C(=c2\\c3ccccc3n3c(=O)c4ccccc4nc23)Nc2ccccc21", "values": [{"measurement": "T/C", "setting": "dose: 25.0 mg/kg/injection, schedule: Q01DX005 (ip), vehicle: Klucel (hydroxypropylcellulose) (HPC)", "result": "92 % of control"}, {"measurement": "T/C", "setting": "[9]", "result": "91 % of control"}, {"measurement": "T/C", "setting": "[10]", "result": "91 % of control"}]}]}
